What was measured:
peritoneal macrophages [1] = test: Mitochondrial fission, TMRM confocal microscopy; type: cell-based, mice; details: Mdivi-1 10 μM
Method: Confocal microscopy. Poly-L-Lysine-treated glass coverslips were added to 12 well plates to which appropriate numbers of macrophages were added along with 2 ml of sterile complete DMEM. Cells were trained with WGP alone or in combination with Mdivi-1 (10 μM) for 7 days as previously described. After 7 days of incubation, the media was removed, and the cells were washed with sterile PBS followed by addition of TMRM dye (Tetramethylrhodamine, methyl ester, Sigma) for 20 min. After incubation, the cells were washed with PBS and fixed with 1 ml of 4% formalin at room temperature for 20-30 min. The cells were washed thrice with PBS and the glass slides were removed carefully with the help of forceps and mounted on the slides using mounting reagents and left overnight to dry at room temperature or stored at 4° C. protecting from the light. The slides were then read using a Nikon Confocal microscope. Mitochondrial fragment lengths were measured by counting at least 100 mitochondria per sample using an Image-J software.

peritoneal macrophages [2] = test: Mitochondrial ROS quantitation (MitoSox Red); type: cell-based, mice; details: Mdivi-1 50 μM and 75 μM
Method: Mitochondrial ROS quantitation. Peritoneal macrophages were treated with WGP or S1P in the presence or absence of Mdivi-1 and incubated at 37° C. with 5% CO2 for 24 h. The cells were then harvested, washed with PBS and pelleted by centrifugation at 1600 rpm for 5 min at room temperature. The pellets were then stained with MitoSOX Red dye (5 μM) (Invitrogen) at 37° C. for 15 min. The cells were washed with pre-warmed HBSS followed by another wash with PBS at room temperature. The cells were then stained with viability dye and anti-F4/80 and then acquired by flow cytometry. Flow cytometry for p-Drp-1. Peritoneal macrophages were treated with WGP (25 μg/ml) or S1P (1 μM) and incubated at 37° C. with 5% CO2 for 3-4 h. Following the completion of incubation, the cells were quickly washed with cold PBS to stop the activation. The cells were harvested and washed with PBS. The cells were then fixed with 4% formaldehyde for 15 min at room temperature, washed with PBS and permeabilized using ice-cold 100% methanol on ice for a minimum of 10 min. The cells were then stained with primary antibody (p-Drp1) (Cell Signaling) for 1 hour at room temperature followed by secondary antibody (Anti-rabbit IgG) (Biolegend) for 30 min at room temperature as instructed in the Cell Signaling phospho-stain protocol and analyzed using flow cytometry.

LLC-GFP cells = test: In vivo Mdivi-1 treatment during WGP training, phenotyping and LLC-GFP challenge; parameters: species or system C57Bl/6 mice
Method: In vivo Mdivi-1 treatment. 6 weeks old C57B1/6 female mice were i.p. injected with Mdivi-1 (50 mg/kg) or DMSO along with suitable carriers (5% Tween-80 and 40% PEG300) starting day 0 for 6 days. Mdivi-1/DMSO treated mice were also treated with PBS or WGP at day 0. Mice were euthanized at day 7 to harvest the BM and lungs for phenotyping using flow cytometry. In tumor challenging experiment, Mdivi-1/DMSO-treated PBS vs WGP trained mice were i.v. injected with 0.4×10^6 LLC-GFP cells on day 9. Mice were euthanized on day 27. Lungs were then analyzed for tumor burden using flow cytometry.
CyTOF mass cytometry staining, data acquisition, and analysis. Lung single cell suspensions were prepared as described earlier and ex vivo stimulated with PMA/Ionomycin for 4 h at 37° C., 5% CO2. The cells were then harvested, washed with PBS and transferred to sterile-capped culture tubes. Cells were then stained for viability using 5 μM cisplatin (Fluidigm) in serum-free RPMI 1640 for 5 min at RT and washed with complete RPMI 1640. Cells were stained with the surface markers antibodies for 30 min at RT and washed twice with Maxpar cell staining buffer (Fluidigm) followed by fixation with 1 ml of 1X Maxpar Fix I buffer for 30 min at RT. Upon fixation, cells were washed twice with 2 ml of 1X Maxpar Perm-S buffer for 5 min at 800 g, stained for the cytoplasmic/secreted antibodies and incubated for 30 min at RT. Following incubation, cells were washed twice with 1 ml of 1X Maxpar Perm-S buffer for 5 min at 800 g. The cells were then suspended in 1 ml of 1X Maxpar nuclear antigen staining buffer (Fluidigm) and incubated for 30 min at RT, washed twice with Maxpar nuclear antigen staining permeability buffer (Fluidigm) at 800 g for 5 min each. Cells were stained for nuclear antigens and incubated at RT for 30 min, washed twice with Maxpar nuclear antigen staining permeability buffer and fixed with 1.6% formaldehyde for 10 min at RT. The fixed cells were then centrifuged to remove the formaldehyde at 800 g for 5 min and incubated with 125 nM of intercalator iridium (Fluidigm) overnight at 4° C. After overnight incubation, the cells were washed twice with cell staining buffer, pelleted and kept on ice until acquisition using CyTOF. Prior to acquisition, cells were suspended in a 1:9 solution of Cell acquisition solution: EQ 4 element calibration beads (Fluidigm) and acquired using a Helios CyTOF system. Upon acquisition of the samples, the .FCS files were normalized to .fcs files using the CyTOF software for analysis. The data acquired by CyTOF were then analyzed using FlowJo10 and the FlowSOM softwares.

**Q.** With COc1cc(-n2c(=S)[nH]c3ccccc3c2=O)c(Cl)cc1Cl [Mdivi-1] as the compound, how does the “effect on WGP-induced mitochondrial fragmentation” value (peritoneal macrophages [1]) read?
**A.** abrogated WGP-induced mitochondrial fragmentation

**Q.** What about the “effect on WGP-mediated mtROS production” value (peritoneal macrophages [2]) of the same compound?
**A.** abrogated WGP-mediated mtROS production

**Q.** And the “effect on WGP-mediated accumulation of myeloid cells in the lungs” value (LLC-GFP cells; Mdivi-1 50 mg/kg i.p. daily)?
**A.** did not affect WGP-mediated accumulation of myeloid cells in the lungs

**Q.** And the “effect on WGP-mediated myelopoiesis in the BM” value (LLC-GFP cells; Mdivi-1 50 mg/kg i.p. daily, day 7)?
**A.** does not inhibit WGP-mediated myelopoiesis in the BM

**Q.** And the “lung IM trained phenotype (TNF-α) in WGP trained mice” value (LLC-GFP cells; Mdivi-1 treated)?
**A.** completely inhibited

**Q.** And the “tumor burdens in the lungs” value (LLC-GFP cells; WGP trained + Mdivi-1 vs untrained control)?
**A.** no difference in the tumor burdens between WGP trained mice treated with Mdivi-1 and untrained control mice

**Q.** What about the “F4/80+CD11b+ lung MAMs and PD-L1+/CD206+ lung macrophages, CyTOF” value (LLC-GFP cells; mouse, in vivo) of the same compound?
**A.** this effect was abolished when mice were treated with Mdivi-1

From patent publication US20250025490A1, “INDUCTION OF TRAINED IMMUNITY FOR THE TREATMENT OF HYPERPROLIFERATIVE DISORDERS” (priority 2021, published 2025)
